From article PMC11212140, “Molecular Bidents with Two Electrophilic Warheads as a New Pharmacological Modality” (ACS Central Science, 2024)

What was measured:
Test in all cases: KiNativ profiling in H3255 cells
Assay type in all cases: cell-based, human
PKD3 = system: T1, PKD3; conditions: 2.5 µM
T1 construct: purchased ActivX Biosciences (KiNativ)
Procedure: (§1) treatment. Cell viability was determined by using CellTiter-Glo (Promega #G7571) according to the manufacturer’s instructions, measuring luminescence using an Envision plate-reader (PerkinElmer Inc.). Dose-response curves were generated using non-linear regression curve fit in GraphPad Prism 9.2.0(GraphPad Software).
(§2) Cellular target engagement assays
(§3) After 6 hours treatment, cells were pelleted, washed with PBS once and lysed with IP lysis buffer (25mMTris-HCl pH 7.4, 150mM NaCl, 1 mM EDTA, 1% NP-40 and 5% glycerol) (Thermo Fisher Scientific, Cat#87788) containing protease/phosphatase inhibitor cocktail (Roche). The protein concentrations were measured by BCA analysis (Pierce). Cell lysates were incubated with 1 μM of biotin conjugated probe (bio-Osimertinib or bio-ZNL-0013) at 4 ℃ overnight, and incubated for 3 more hours at room temperature. Lysates with probe were then incubated with streptavidin beads (Thermo Fisher, #20349) for 2 hours at 4 ℃. The protein-probe complexes on the beads were then subjected to immunoblotting.
(§4) H3255 cells were plated with 6.5x10^6 per condition in fresh media in 15 cm plates and treated the 80% confluency for 2 hours with DMSO or 2.5 μM of ZNL-0056. To harvest cells, plates were washed 3 times with cold PBS, then collected by scraping into 4 mL of cold PBS containing protease and phosphatase inhibitors. Cells were pelleted by centrifugation at 1350 g at 4 ℃ for 5 minutes and immediately frozen in liquid nitrogen. The frozen samples were sent to ActivX Biosciences (La Jolla, CA) for the remainder of the KiNativ profiling experiment4.
(§5) Protein expression and purification
(§6) Human EGFR kinase domain (residues 696-1022) with T790M and V948R mutations was cloned with an N-terminal, protease cleavable His -GST tag. Recombinant protein was expressed in SF9 insect cells using baculovirus generated from the pFastBac system (Thermo Fisher) .
(§7) Briefly, cells at a density of ~2x10^6 cells/mL were infected with 1% (v/v) virus stock and grown for ~72 hours before harvesting and freezing the cell pellet . Infected cells were lysed in buffer A (50 mM Tris pH 8.0, 500 mM NaCl, 5% glycerol, 0.5 mM Tris(2-carboxyethyl)phosphine [TCEP]), ultracentrifuged at >200,000 rcf for 1 h, and the supernatant flo wed through Ni-NTA resin by gravity. The resin was washed with buffer A supplemented with 40 mM imidazole by […]

MPSK1 = system: T2, MPSK1; conditions: 2.5 µM; Lys2; DLKPTNILLGDEGQPVLMDLGSMNQACIHVEGSR
T2 construct: purchased ActivX Biosciences (KiNativ)
Procedure: as §1, §2, §3, §4, §5, §6, §7

NuaK1 = system: T3, NuaK1; conditions: 2.5 µM; Lys1; VVAIKSIR
T3 construct: purchased ActivX Biosciences (KiNativ)
Procedure: as §1, §2, §3, §4, §5, §6, §7

CHK2 = system: T4, CHK2; conditions: 2.5 µM
T4 construct: purchased ActivX Biosciences (KiNativ)
Procedure: as §1, §2, §3, §4, §5, §6, §7

STLK6 = system: T5, STLK6; conditions: 2.5 µM; Lys1; HTPTGTLVTIKITNLENCNEER
T5 construct: purchased ActivX Biosciences (KiNativ)
Procedure: as §1, §2, §3, §4, §5, §6, §7

FRK = system: T6, FRK; conditions: 2.5 µM
T6 construct: purchased ActivX Biosciences (KiNativ)
Procedure: as §1, §2, §3, §4, §5, §6, §7

MRCKb = system: T7, MRCKb; conditions: 2.5 µM; Lys2; DIKPDNVLLDVNGHIR
T7 construct: purchased ActivX Biosciences (KiNativ)
Procedure: as §1, §2, §3, §4, §5, §6, §7

MAP3K5 = system: T8, MAP3K5; conditions: 2.5 µM; Lys2; DIKGDNVLINTYSGVLK
T8 construct: purchased ActivX Biosciences (KiNativ)
Procedure: as §1, §2, §3, §4, §5, §6, §7

PKN1 = system: T9, PKN1; conditions: 2.5 µM; Lys1; VLLSEFRPSGELFAIKALK
T9 construct: purchased ActivX Biosciences (KiNativ)
Procedure: as §1, §2, §3, §4, §5, §6, §7

SLK = system: T10, SLK; conditions: 2.5 µM
T10 construct: purchased ActivX Biosciences (KiNativ)
Procedure: as §1, §2, §3, §4, §5, §6, §7

GCK = system: T11, GCK; conditions: 2.5 µM
T11 construct: purchased ActivX Biosciences (KiNativ)
Procedure: as §1, §2, §3, §4, §5, §6, §7

ITPK1 = system: T12, ITPK1; conditions: 2.5 µM; ATP; NFSAGTSDRESIFFNSHNVSKPESSSVLTELDKIEGVFERPSDEVIR
T12 construct: purchased ActivX Biosciences (KiNativ)
Procedure: as §1, §2, §3, §4, §5, §6, §7

CaMK1a = system: T13, CaMK1a; conditions: 2.5 µM; Lys1; LVAIKCIAK
T13 construct: purchased ActivX Biosciences (KiNativ)
Procedure: as §1, §2, §3, §4, §5, §6, §7

IKKa = system: T14, IKKa; conditions: 2.5 µM; Lys2; DLKPENIVLQDVGGK
T14 construct: purchased ActivX Biosciences (KiNativ)
Procedure: as §1, §2, §3, §4, §5, §6, §7

CDKL3 = system: T15, CDKL3; conditions: 2.5 µM; Lys2; DIKPENILVSQSGITK
T15 construct: purchased ActivX Biosciences (KiNativ)
Procedure: as §1, §2, §3, §4, §5, §6, §7

EphB4 = system: T16, EphB4; conditions: 2.5 µM; Activation Loop; FLEENSSDPTYTSSLGGKIPIR
T16 construct: purchased ActivX Biosciences (KiNativ)
Procedure: as §1, §2, §3, §4, §5, §6, §7

IRE1 = system: T17, IRE1; conditions: 2.5 µM; Lys2; DLKPHNILISMPNAHGK
T17 construct: purchased ActivX Biosciences (KiNativ)
Procedure: as §1, §2, §3, §4, §5, §6, §7

AKT1 = system: T18, AKT1; conditions: 2.5 µM; ATP Loop; GTFGKVILVK
T18 construct: purchased ActivX Biosciences (KiNativ)
Procedure: as §1, §2, §3, §4, §5, §6, §7

PIP4K2B = system: T19, PIP4K2B; conditions: 2.5 µM; ATP; AKDLPTFKDNDFLNEGQK
T19 construct: purchased ActivX Biosciences (KiNativ)
Procedure: as §1, §2, §3, §4, §5, §6, §7

RSK1 domain2 = system: T20, RSK1 domain2; conditions: 2.5 µM; Lys2; DLKPSNILYVDESGNPECLR
T20 construct: RSK1 domain2; purchased ActivX Biosciences (KiNativ)
Procedure: as §1, §2, §3, §4, §5, §6, §7

ROCK1, ROCK2 = conditions: 2.5 µM; Lys2; DVKPDNMLLDK
Procedure: as §1, §2, §3, §4, §5, §6, §7

Wnk1, Wnk2 = conditions: 2.5 µM; ATP Loop; GSFKTVYK
Procedure: as §1, §2, §3, §4, §5, §6, §7

YANK3 = system: T21, YANK3; conditions: 2.5 µM; Lys2; DVKPDNILLDER
T21 construct: purchased ActivX Biosciences (KiNativ)
Procedure: as §1, §2, §3, §4, §5, §6, §7

MARK1, MARK2 = conditions: 2.5 µM; Lys1; EVAVKIIDK
Procedure: as §1, §2, §3, §4, §5, §6, §7

[1] = Lys1, LGSGQFGEVWEGLWNNTTPVAVKTLKPGSMDPNDFLR

For `C=CC(=O)Nc1cc(Nc2nccc(-c3cn(C)c4ccccc34)n2)c(OC)cc1N(C)CCN(C)C` [Osimertinib, osimertinib, reference compound], the Inhibition (PKD3; Lys1, DVAIKVIDK) was -11.4%, the Inhibition (PKD3; Lys2, NIVHCDLKPENVLLASAEPFPQVK) was -11.6% and the Inhibition (MPSK1) was 0.8%. For the same compound, the Inhibition (NuaK1) was 2.8%, the Inhibition (CHK2; Lys1, VAIKIISK) was 17.8% and the Inhibition (CHK2; Lys2, DLKPENVLLSSQEEDCLIK) was 11.1%. It also gave an Inhibition (STLK6) of 12.6%, an Inhibition (FRK; Activation Loop, HEIKLPVK) of -27.9% and an Inhibition (FRK; [1]) of 12.8%. It also gave an Inhibition (MRCKb) of -26.5%, an Inhibition (MAP3K5) of 21.0% and an Inhibition (PKN1) of -12.2%. It also gave an Inhibition (SLK; Lys1, AQNKETSVLAAAKVIDTK) of -11.7%, an Inhibition (SLK; Lys2, DLKAGNILFTLDGDIK) of 8.3% and an Inhibition (GCK; Lys1, DTVTSELAAVKIVK) of -23.8%. For the same compound, the Inhibition (GCK; Lys2, DIKGANLLLTLQGDVK) was 15.4%, the Inhibition (ITPK1) was 22.9% and the Inhibition (CaMK1a) was 7.0%. It also gave an Inhibition (IKKa) of -19.3%, an Inhibition (CDKL3) of 4.6% and an Inhibition (EphB4) of 19.2%. For the same compound, the Inhibition (IRE1) was 13.6%, the Inhibition (AKT1) was -19.5% and the Inhibition (PIP4K2B) was -4.2%. The Inhibition (RSK1 domain2) was -13.9%, the Inhibition (ROCK1, ROCK2) was -1.6% and the Inhibition (Wnk1, Wnk2) was -14.8%. For the same compound, the Inhibition (YANK3) was 1.4% and the Inhibition (MARK1, MARK2) was -15.4%.
Work on `C=CC(=O)Nc1cc(C(=O)Nc2nc3cccc(C)c3n2[C@@H]2CCCCN(C(=O)C=C)C2)cs1` [ZNL-0056] yielded an Inhibition (PKD3; Lys1, DVAIKVIDK) of -14.1%, an Inhibition (PKD3; Lys2, NIVHCDLKPENVLLASAEPFPQVK) of 3.5% and an Inhibition (MPSK1) of 7.6%. For the same compound, the Inhibition (NuaK1) was 17.0%, the Inhibition (CHK2; Lys1, VAIKIISK) was 23.8% and the Inhibition (CHK2; Lys2, DLKPENVLLSSQEEDCLIK) was 13.8%. It also gave an Inhibition (STLK6) of 16.7%, an Inhibition (FRK; Activation Loop, HEIKLPVK) of -77.6% and an Inhibition (FRK; [1]) of 7.6%. For the same compound, the Inhibition (MRCKb) was 14.5%, the Inhibition (MAP3K5) was -61.4% and the Inhibition (PKN1) was 8.5%. It also gave an Inhibition (SLK; Lys1, AQNKETSVLAAAKVIDTK) of -4.8%, an Inhibition (SLK; Lys2, DLKAGNILFTLDGDIK) of -22.3% and an Inhibition (GCK; Lys1, DTVTSELAAVKIVK) of -6.8%. The Inhibition (GCK; Lys2, DIKGANLLLTLQGDVK) was 0.9%, the Inhibition (ITPK1) was -0.632% and the Inhibition (CaMK1a) was 5.1%. For the same compound, the Inhibition (IKKa) was 5.3%, the Inhibition (CDKL3) was -6.0% and the Inhibition (EphB4) was -4.5%. It also gave an Inhibition (IRE1) of -29.1%, an Inhibition (AKT1) of -1.6% and an Inhibition (PIP4K2B) of 16.6%. For the same compound, the Inhibition (RSK1 domain2) was 11.8%, the Inhibition (ROCK1, ROCK2) was -10.4% and the Inhibition (Wnk1, Wnk2) was -0.1%. For the same compound, the Inhibition (YANK3) was -11.7% and the Inhibition (MARK1, MARK2) was 11.4%.
